# Reference: US6465654B2, “Process for preparing 1-substituted, 2-substituted 1H-imidazo[4, 5-c]quinoline-4-amines” (3M Innovative Properties Company, priority 1991, dated 2002)
# Experiments:
# interferon [1] = assay: Interferon induction in mice; type: in vivo; conditions: mouse serum
# In short: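 Mouse serum collected at 1, 2 and 4 h (separate groups), pooled, stored at −70° C, then assayed as for human-cell interferon. Values in α/β reference units/mL against a mouse MU-1-IF standard; "<" marks levels below assay sensitivity.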
# [2] = tested on: Herpes simplex virus Type II strain 333; assay: Antiviral activity in guinea pigs infected with Herpes simplex virus Type II (lesion inhibition); type: in vivo; conditions: oral once daily for four days
# From the text: Female Hartley guinea pigs weighing 200 to 250 g are anesthetized with methoxyflurane (available under the […] from Pitman-Moore, Inc., Washington Crossing, N.J.), after which the vaginal area is swabbed with a dry cotton swab. The guinea pigs are then infected intravaginally with a cotton swab saturated with Herpes simplex virus Type II strain 333 (1×10^5 plaque forming units/mL). Guinea pigs are assigned to groups of 7 animals; one group for each treatment and one to serve as a control (vehicle treated). The compounds of the invention are formulated in water containing 5% Tween 80 (a polyoxyethylene sorbitan monooleate available from Aldrich Chemical Company, Inc., Milwaukee, Wis.). The, guinea pigs are treated orally once daily for four consecutive days starting 24 hours after infection. Antiviral activity is evaluated by comparing lesion development in compound-treated versus vehicle-treated guinea pigs. […] The maximum lesion score of each guinea pig is used to calculate the percentage lesion inhibition. The percentage lesion inhibition is calculated as follows: […]
# interferon-α [3] = assay: Interferon-α induction in human cells, diluted whole blood; type: cell-based; conditions: 24 hours
# MC-26 colon tumor cells [4] = assay: Inhibition of MC-26 tumors in mice, 14 day lung colony count; type: in vivo; conditions: lung colonies day 14, 4×10^4 MC-26 cells i.v., oral 30 mg/kg on days 3-7 and 10-14; control 385 ± 31
# Method: The mice are sacrificed 14 days later. […] Five mice are in each treatment group and comparisons are made to controls. […] The mice in the control groups were dosed orally with saline (10 mL/kg) on days 3, 4, 5, 6, and 7, and with water (10 mL/kg) on days 10, 11, 12, 13, and 14.
# interferon [5] = assay: Interferon induction in guinea pigs (serum interferon titer); type: in vivo; conditions: guinea pig serum 24 hours after initial oral dose
# From the text: Female Hartley guinea pigs weighing 200 to 250 g are anesthetized with methoxyflurane (available under the […] from Pitman-Moore, Inc., Washington Crossing, N.J.), after which the vaginal area is swabbed with a dry cotton swab. The guinea pigs are then infected intravaginally with a cotton swab saturated with Herpes simplex virus Type II strain 333 (1×10^5 plaque forming units/mL). Guinea pigs are assigned to groups of 7 animals; one group for each treatment and one to serve as a control (vehicle treated). The compounds of the invention are formulated in water containing 5% Tween 80 (a polyoxyethylene sorbitan monooleate available from Aldrich Chemical Company, Inc., Milwaukee, Wis.). The, guinea pigs are treated orally once daily for four consecutive days starting 24 hours after infection. Twenty-four hours after the initial dose of test compound has been administered, blood is obtained from 3 guinea pigs from each treatment group by cardiac puncture of methoxyflurane anesthetized animals. Blood is pooled and allowed to clot at room temperature. After low speed centrifugation, serum is collected and stored at -70° C. until analysis. Interferon levels in the guinea pig serum are determined in a standard microtiter assay using transformed guinea pig cells (ATCC CRL 1405). The interferon assay is done in 96 well microtiter plates. Confluent monolayers of transformed guinea pig cells are treated with dilutions of guinea pig serum made with medium 199 (GIBCO, Grand Island, N.Y.). The cell and serum dilutions are incubated at 37° C. overnight. The following day, the medium and serum are removed and about 10 plaque forming units of Mengovirus are added to each well. Controls consist of wells that receive no guinea pig serum (virus positive control) and wells that receive no virus (virus negative control). Cells and virus are incubated for 2 to 3 days at 37° C. before quantifying for viral cytopathic effect. The viral cytopathic effect is quantified by staining with 0.05% crystal violet followed by spectrophotometric absorbance measurements. The titer of interferon in serum is expressed as units/mL and is the reciprocal of the highest dilution that protects cells from virus.
# interferon-α [6] = assay: Interferon-α induction in human cells, PBM; type: cell-based; conditions: 24 hours
# [7] = tested on: vesicular stomatitis virus (VSV); assay: microbe, parasite or virus in culture; type: cell-based; conditions: Vesicular stomatitis virus, read-out: VSV Yield Inhibition
# MC-26 colon tumor cells [8] = assay: Inhibition of MC-26 tumors in mice, 21 day lung colony count; conditions: lung colonies day 21, 1×10^4 MC-26 cells i.v., control 55 ± 11
# Method: On day 0 female CDF1 mice are inoculated i.v. with 1×10^4 MC-26 colon tumor cells in a volume of 0.2 mL of saline per mouse. The mice are sacrificed 21 days later. The lungs are removed and fixed with WARF then allowed to stand for 30 minutes. The lobes are separated and the colonies are counted. Ten mice are in each treatment group and in the control group.
# The mice in the control group were dosed orally with water (10 mL/Kg) on days 0, 1, 2, 3 and 4.
Structure (SMILES),"Interferon induction in mice (interferon [1]; oral 1 mg/kg, 1 hr) [Reference Units/mL]","Interferon induction in mice (interferon [1]; oral 1 mg/kg, 2 hr) [Reference Units/mL]","Interferon induction in mice (interferon [1]; oral 1 mg/kg, 4 hr)","Interferon induction in mice (interferon [1]; oral 3 mg/kg, 1 hr) [Reference Units/mL]","Interferon induction in mice (interferon [1]; oral 3 mg/kg, 2 hr) [Reference Units/mL]","Interferon induction in mice (interferon [1]; oral 3 mg/kg, 4 hr)","Interferon induction in mice (interferon [1]; oral 10 mg/kg, 1 hr) [Reference Units/mL]","Interferon induction in mice (interferon [1]; oral 10 mg/kg, 2 hr)","Interferon induction in mice (interferon [1]; oral 10 mg/kg, 4 hr)","Interferon induction in mice (interferon [1]; oral 30 mg/kg, 1 hr) [Reference Units/mL]",Number of Colonies (MC-26 colon tumor cells [4]),Interferon-α induction (interferon-α [6]; dose concentration 0.01 μg/mL),Interferon-α induction (interferon-α [6]; dose concentration 0.05 μg/mL),Interferon-α induction (interferon-α [6]; dose concentration 0.10 μg/mL),Interferon-α induction (interferon-α [6]; dose concentration 0.50 μg/mL),Interferon-α induction (interferon-α [6]; dose concentration 1.0 μg/mL),Interferon-α induction (interferon-α [6]; dose concentration 5.0 μg/mL),"Interferon induction in mice (interferon [1]; oral 0.3 mg/kg, 1 hr) [Reference Units/mL]","Interferon induction in mice (interferon [1]; oral 0.3 mg/kg, 2 hr) [Reference Units/mL]","Interferon induction in mice (interferon [1]; oral 0.3 mg/kg, 4 hr) [Reference Units/mL]",also measured
"CC(C)Cn1c(CN=[N+]=[N-])nc2c(N)nc3ccccc3c21 [Example 11, 2-Azidomethyl-1-(2-methylpropyl)-1H-imidazo-[4,5-c]quinolin-4-amine]",280,1100,71 Reference Units/mL,490,1900,30 Reference Units/mL,1100,2500 Reference Units/mL,280 Reference Units/mL,850,204 ± 28,330 α Reference Units/mL,330 α Reference Units/mL,570 α Reference Units/mL,570 α Reference Units/mL,570 α Reference Units/mL,570 α Reference Units/mL,–,–,–,"Interferon induction in mice (interferon [1]; oral 30 mg/kg, 2 hr): 2500 Reference Units/mL; Interferon induction in mice (interferon [1]; oral 30 mg/kg, 4 hr): 40 Reference Units/mL; % Lesion Inhibition ([2]; dose 0.1 mg/kg): 50%; % Lesion Inhibition ([2]; dose 0.5 mg/kg): 100%; % Lesion Inhibition ([2]; dose 1 mg/kg): 100%; Interferon-α induction (interferon-α [3]; dose concentration 0.10 μg/mL): 330 α Reference Units/mL; Interferon-α induction (interferon-α [3]; dose concentration 0.50 μg/mL): 330 α Reference Units/mL; Interferon-α induction (interferon-α [3]; dose concentration 1.0 μg/mL): 250 α Reference Units/mL; Interferon-α induction (interferon-α [3]; dose concentration 5.0 μg/mL): 140 α Reference Units/mL; Reference Units/mL (interferon in serum) (interferon [5]; 0.5 mg/kg): >12,800 Units/mL; Reference Units/mL (interferon in serum) (interferon [5]; 1 mg/kg): >12,800 Units/mL"
"CC(C)Cn1c(CN2CCOCC2)nc2c(N)nc3ccccc3c21 [Example 12, 1-(2-Methylproyl)-2-morpholinomethyl-1H-imidazo-[4,5-c]quinolin-4-amine]",94,160,<18 Reference Units/mL,54,40,<18 Reference Units/mL,850,850 Reference Units/mL,40 Reference Units/mL,850,149 ± 21,–,–,–,–,–,–,–,–,–,"Interferon induction in mice (interferon [1]; oral 30 mg/kg, 2 hr): 5800 Reference Units/mL; Interferon induction in mice (interferon [1]; oral 30 mg/kg, 4 hr): 40 Reference Units/mL; % Lesion Inhibition ([2]; dose 0.5 mg/kg): 82%; % Lesion Inhibition ([2]; dose 2 mg/kg): 100%; Interferon-α induction (interferon-α [3]; dose concentration 0.10 μg/mL): <1.8 α Reference Units/mL; Interferon-α induction (interferon-α [3]; dose concentration 0.50 μg/mL): 37 α Reference Units/mL; Interferon-α induction (interferon-α [3]; dose concentration 1.0 μg/mL): 140 α Reference Units/mL; Interferon-α induction (interferon-α [3]; dose concentration 5.0 μg/mL): 330 α Reference Units/mL; Reference Units/mL (interferon in serum) (interferon [5]; 0.5 mg/kg): >12,800 Units/mL; Reference Units/mL (interferon in serum) (interferon [5]; 2 mg/kg): >12,800 Units/mL"
"CSCc1nc2c(N)nc3ccccc3c2n1Cc1ccccc1 [Example 31, 2-Methylthiomethyl-1-phenylmethyl-1H-imidazo-[4,5-c]quinolin-4-amine]",<61,140,≦61 Reference Units/mL,420,420,320 Reference Units/mL,960,5000 Reference Units/mL,550 Reference Units/mL,–,221 ± 37,<4 α Reference Units/mL,18 α Reference Units/mL,2500 α Reference Units/mL,370 α Reference Units/mL,280 α Reference Units/mL,370 α Reference Units/mL,<61,<61,<61,log reduction at 1 µg/mL [7]: 5; log reduction at 5 µg/mL [7]: 5; log reduction at 10 µg/mL [7]: 6
"COCCn1c(COC)nc2c(N)nc3ccccc3c21 [Example 37, 1-(2-Methoxyethyl)-2-methoxymethyl-1H-imidazo[4,5-c]quinolin-4-amine]",<120,<120,<120 Reference Units/mL,<120,<120,<120 Reference Units/mL,270,≦270 Reference Units/mL,≦270 Reference Units/mL,–,123 ± 31,–,–,<4 α Reference Units/mL,2500 α Reference Units/mL,2500 α Reference Units/mL,210 α Reference Units/mL,<120,<120,<120,–
"CCOCc1nc2c(N)nc3ccccc3c2n1CC(C)(C)O [Example 99, 4-Amino-α,α-dimethyl-2-ethoxymethyl-1H-imidazo[4,5-c]quinoline-1-ethanol]",2200,5100,460 Reference Units/mL,1600,750,˜220 Reference Units/mL,2500,4600 Reference Units/mL,˜220 Reference Units/mL,–,–,28 α Reference Units/mL,316 α Reference Units/mL,280 α Reference Units/mL,790 α Reference Units/mL,790 α Reference Units/mL,630 α Reference Units/mL,1600,3500,390,log reduction at 0.1 µg/mL [7]: 5; log reduction at 0.5 µg/mL [7]: 5; log reduction at 1 µg/mL [7]: 5; Number of Colonies (MC-26 colon tumor cells [8]; oral 1 mg/Kg on days 0-4): 29 ± 4; Number of Colonies (MC-26 colon tumor cells [8]; oral 3 mg/Kg on days 0-4): 17 ± 3
